Experiment [1] can be described thus: ITC titration with D-glucose. In kind it is binding. The following applies: d-glucose in 10 mM phosphate buffer, 298 K (Table 6). Background: Isothermal titration calorimetry measures the heat released or taken up as one component is titrated into another.
Procedure: ITC experiments were carried out at 298 K. Saccharide solutions were prepared in HPLC-grade water with 10 mM phosphate buffer solution (pH 7.4) and allowed to equilibrate overnight if necessary. The sample cell was charged with a known concentration of receptor solution in HPLC-grade water with 10 mM phosphate buffer solution at pH 7.4 (typically 50 µM - 200 µM). Then, aliquots (typically 1.0 µL) of carbohydrate solution were added and the evolution of heat was followed as a function of time. Heats of dilution were measured by injecting the same carbohydrate solution into HPLC-grade water with 10 mM phosphate buffer solution at pH 7.4, using identical conditions. For every addition, the heat of dilution was subtracted from the heat of binding using a MicroCal software programme implemented in ORIGIN 7.0. This gave an XY matrix of heat vs. total guest concentration. This matrix was then imported into a specially written Excel programme to fit the data to a 1:1 binding model to give a Ka. ΔG can be derived from Ka and thus ΔS can be derived from ΔH and ΔG using common thermodynamic equations. […] This method consistently produced more accurate fits than fitting the data to an S-curve, as in the MicroCal software (S-curves are typically not observed for binding constants below ~104 - 105 M^-1).
Experiment [2] is described as follows: 1H NMR titration with D-glucose. The experiment is classed as binding. Conditions: D2O; buffer differs by receptor (FIGS. 68-73, 77) (Table 6).
Procedure: ^1H-NMR titrations were performed on a Varian VNMR cryogenically cooled S600 spectrometer. Solutions of saccharides in D2O (99.9%), containing receptor at a known concentration to be used in the experiment, were prepared and allowed to equilibrate overnight before use if necessary. Aliquots were then added to an NMR tube containing a known concentration of receptor solution (typically 100 µM - 400 µM). The receptor concentration was therefore held constant while the carbohydrate concentration was increased. The sample tube was shaken after each addition and ^1H-NMR spectra were acquired at 298 K.
^1H-NMR titrations were performed on a Varian VNMR cryogenically cooled S600 spectrometer. Solutions of saccharides in D2O (99.9%), containing receptor at a known concentration to be used in the experiment, were prepared and allowed to equilibrate overnight before use if necessary. Aliquots were then added to an NMR tube containing a known concentration of receptor solution (typically 50 µM - 250 µM). The receptor concentration was therefore held constant while the carbohydrate concentration was increased. The sample tube was shaken after each addition, centrifuged and ^1H-NMR spectra were acquired at 298 K.
If the receptor bound saccharide slower than the NMR sample rate (“slow exchange”), the Ka was determined by analysing the NMR integral of a peak assigned to the Host-Guest complex. The variable X was defined as the integral of an isolated resonance of the complex (typically in the aromatic region) divided by the integral of all the related resonances (typically the whole aromatic region). As X is proportional to fraction of host in the bound state, the change in X could be plotted as a function of the guest concentration to give a curve which could be fitted to a 1:1 binding model to yield the association constant Ka. Mathematically, the fitting process is essentially identical to that employed for binding with fast exchange, except that the integral of a peak due to the complex replaces the chemical shift of a peak due to bound + unbound receptor. The calculation was performed using a non-linear least squares curve-fitting programme implemented within Excel. The programme yields binding constants Ka and limiting X (Xlim) as output. An estimated error for Ka was obtained from individual data points by assuming the determined Ka and Xlim.

This is an account of results in patent US20230365514A1, “MACROCYCLIC COMPOUNDS” (NOVO NORDISK RESEARCH CENTRE OXFORD LIMITED, priority 2017, published 2023).

Where “and” joins values, the source holds several entries; their conditions need not be identical. Equal values may be shown once.

As to `Cc1c2c(C)c3c(C)c1CNC(=O)Nc1ccc(C(=O)NC(CCC(=O)NC(CCC(=O)O)(CCC(=O)O)CCC(=O)O)(CCC(=O)NC(CCC(=O)O)(CCC(=O)O)CCC(=O)O)CCC(=O)NC(CCC(=O)O)(CCC(=O)O)CCC(=O)O)cc1NC(=O)NCc1c(C)c(c(C)c(c1C)CNC(=O)Nc1cc(C(=O)NC(CCC(=O)NC(CCC(=O)O)(CCC(=O)O)CCC(=O)O)(CCC(=O)NC(CCC(=O)O)(CCC(=O)O)CCC(=O)O)CCC(=O)NC(CCC(=O)O)(CCC(=O)O)CCC(=O)O)ccc1NC(=O)NC3)CNC(=O)Nc1cc(C(=O)NC(CCC(=O)NC(CCC(=O)O)(CCC(=O)O)CCC(=O)O)(CCC(=O)NC(CCC(=O)O)(CCC(=O)O)CCC(=O)O)CCC(=O)NC(CCC(=O)O)(CCC(=O)O)CCC(=O)O)ccc1NC(=O)NC2` [Receptor 8], the “Binding affinity for D-glucose (Ka), Determined by ITC” value in experiment [1] is 4210 M⁻¹ and 4210 ± 73 M⁻¹.

In the case of `CCc1c2c(CC)c3c(CC)c1CNC(=O)Nc1ccc(C(=O)NCCOCCOCCOCCN)cc1NC(=O)NCc1c(CC)c(c(CC)c(c1CC)CNC(=O)Nc1cc(C(=O)NCCOCCOCCOCCN)ccc1NC(=O)NC3)CNC(=O)Nc1cc(C(=O)NCCOCCOCCOCCN)ccc1NC(=O)NC2` [Receptor 10], the “Binding affinity for D-glucose (Ka), Determined by 1H-NMR” value (“Binding affinity … by 1H-NMR” below) in experiment [2] was found to be 481 ± 57 M⁻¹.

Regarding `CCc1c2c(CC)c3c(CC)c1CNC(=O)Nc1cc(C(=O)[O-])c(C(=O)[O-])cc1NC(=O)NCc1c(CC)c(c(CC)c(c1CC)CNC(=O)Nc1cc(C(=O)[O-])c(C(=O)[O-])cc1NC(=O)NC3)CNC(=O)Nc1cc(C(=O)[O-])c(C(=O)[O-])cc1NC(=O)NC2.[Na+].[Na+].[Na+].[Na+].[Na+].[Na+]` [Receptor 11, Hexa-carboxylate Hexa-urea Macrocycle], the “Binding affinity … by 1H-NMR” value in experiment [2] is on record as ~ 2000 M^-1.

As to `CCc1c2c(CC)c3c(CC)c1CNC(=O)Nc1cc(C(=O)NC(CCC(=O)NC(CCC(=O)[O-])(CCC(=O)[O-])CCC(=O)[O-])(CCC(=O)NC(CCC(=O)[O-])(CCC(=O)[O-])CCC(=O)[O-])CCC(=O)NC(CCC(=O)[O-])(CCC(=O)[O-])CCC(=O)[O-])ccc1NC(=O)NCc1c(OC)c(c(OC)c(c1OC)CNC(=O)Nc1ccc(C(=O)NC(CCC(=O)NC(CCC(=O)[O-])(CCC(=O)[O-])CCC(=O)[O-])(CCC(=O)NC(CCC(=O)[O-])(CCC(=O)[O-])CCC(=O)[O-])CCC(=O)NC(CCC(=O)[O-])(CCC(=O)[O-])CCC(=O)[O-])cc1NC(=O)NC3)CNC(=O)Nc1ccc(C(=O)NC(CCC(=O)NC(CCC(=O)[O-])(CCC(=O)[O-])CCC(=O)[O-])(CCC(=O)NC(CCC(=O)[O-])(CCC(=O)[O-])CCC(=O)[O-])CCC(=O)NC(CCC(=O)[O-])(CCC(=O)[O-])CCC(=O)[O-])cc1NC(=O)NC2.[Na+].[Na+].[Na+].[Na+].[Na+].[Na+].[Na+].[Na+].[Na+].[Na+].[Na+].[Na+].[Na+].[Na+].[Na+].[Na+].[Na+].[Na+].[Na+].[Na+].[Na+].[Na+].[Na+].[Na+].[Na+].[Na+].[Na+]` [Receptor 13], the “Binding affinity for D-glucose (Ka), Determined by ITC” value in experiment [1] is 1310 M⁻¹ and 1310 ± 33 M⁻¹.

`CCc1c2c(CC)c3c(CC)c1CNC(=O)Nc1ccc(C(=O)NC(CCC(=O)NC(CCC(=O)[O-])(CCC(=O)[O-])CCC(=O)[O-])(CCC(=O)NC(CCC(=O)[O-])(CCC(=O)[O-])CCC(=O)[O-])CCC(=O)NC(CCC(=O)[O-])(CCC(=O)[O-])CCC(=O)[O-])cc1NC(=O)NCc1c(C)c(c(C)c(c1C)CNC(=O)Nc1cc(C(=O)NC(CCC(=O)NC(CCC(=O)[O-])(CCC(=O)[O-])CCC(=O)[O-])(CCC(=O)NC(CCC(=O)[O-])(CCC(=O)[O-])CCC(=O)[O-])CCC(=O)NC(CCC(=O)[O-])(CCC(=O)[O-])CCC(=O)[O-])ccc1NC(=O)NC3)CNC(=O)Nc1cc(C(=O)NC(CCC(=O)NC(CCC(=O)[O-])(CCC(=O)[O-])CCC(=O)[O-])(CCC(=O)NC(CCC(=O)[O-])(CCC(=O)[O-])CCC(=O)[O-])CCC(=O)NC(CCC(=O)[O-])(CCC(=O)[O-])CCC(=O)[O-])ccc1NC(=O)NC2.[Na+].[Na+].[Na+].[Na+].[Na+].[Na+].[Na+].[Na+].[Na+].[Na+].[Na+].[Na+].[Na+].[Na+].[Na+].[Na+].[Na+].[Na+].[Na+].[Na+].[Na+].[Na+].[Na+].[Na+].[Na+].[Na+].[Na+]` [Receptor 14]: the “Binding affinity … by 1H-NMR” value in experiment [2] is 14926 ± 1566 M⁻¹.
